From ChEMBL document CHEMBL5335767, “Synthesis and study of new siderophore analog-ciprofloxacin conjugates with antibiotic activities against Pseudomonas aeruginosa and Burkholderia spp” (Eur J Med Chem, 2023)
Values after ≈ are worked out from the molar mass of the structure shown.

Key:
[1] = tested on: Burkholderia thailandensis; assay: Antibacterial activity against Burkholderia thailandensis E264TS32C12 under 1 uM FeCl3 medium by CLSI protocol based microdilution method; format: functional
[2] = tested on: Burkholderia pseudomallei; assay: Antibacterial activity against Burkholderia pseudomallei K96243 under succinate minimum medium by CLSI protocol based microdilution method; format: functional
[3] = tested on: Burkholderia pseudomallei; assay: Antibacterial activity against Burkholderia pseudomallei BPS2020IRBA004 under muller hinton medium by CLSI protocol based microdilution method; format: functional
[4] = tested on: Burkholderia pseudomallei; assay: Antibacterial activity against Burkholderia pseudomallei BPS2020IRBA001 under succinate minimum medium by CLSI protocol based microdilution method; format: functional
Lipid bilayer = assay: Binding affinity to bacterial inner membrane mimic PE/PG/CL/PC (60:20:10:10) assessed as maximum insertion pressure
[5] = tested on: Burkholderia pseudomallei; assay: Antibacterial activity against Burkholderia pseudomallei BPS2020IRBA003 under 1 uM FeCl3 medium by CLSI protocol based microdilution method; format: functional
[6] = tested on: Burkholderia pseudomallei; assay: Antibacterial activity against Burkholderia pseudomallei BPS2020IRBA003 under succinate minimum medium by CLSI protocol based microdilution method; format: functional
[7] = Antibacterial activity against Burkholderia pseudomallei BPS2020IRBA005 under 1 uM FeCl3 medium by CLSI protocol based microdilution method; format: functional; conditions: Burkholderia thailandensis
[8] = tested on: Burkholderia pseudomallei; assay: Antibacterial activity against Burkholderia pseudomallei BPS2020IRBA002 under 1 uM FeCl3 medium by CLSI protocol based microdilution method; format: functional
Pseudomonas aeruginosa [9] = assay: Antibacterial activity against Pseudomonas aeruginosa PAD07 under succinate minimum medium by CLSI protocol based microdilution method; format: functional
[10] = tested on: Burkholderia thailandensis; assay: Antibacterial activity against Burkholderia thailandensis E264TS32C10 under succinate minimum medium by CLSI protocol based microdilution method; format: functional
Pseudomonas aeruginosa [11] = assay: Antibacterial activity against Pseudomonas aeruginosa PAD07 under 1 uM FeCl3 medium by CLSI protocol based microdilution method; format: functional
[12] = tested on: Burkholderia pseudomallei; assay: Antibacterial activity against Burkholderia pseudomallei BPS2020IRBA002 under succinate minimum medium by CLSI protocol based microdilution method; format: functional
[13] = tested on: Burkholderia thailandensis; assay: Antibacterial activity against Burkholderia thailandensis E264TS32C12 under succinate minimum medium by CLSI protocol based microdilution method; format: functional
[14] = tested on: Burkholderia thailandensis; assay: Antibacterial activity against Burkholderia thailandensis E264 under 1 uM FeCl3 medium by CLSI protocol based microdilution method; format: functional
HepG2 = assay: Cytotoxicity against human HepG2 cells at 28 ug/ml after 48 hrs by CellTiter-Glo luminescent cell viability assay; format: toxicity, cell-based; conditions: hepg2, 48 h, dose 28 µg/ml
[15] = tested on: Burkholderia pseudomallei; assay: Antibacterial activity against Burkholderia pseudomallei BPS2020IRBA005 under succinate minimum medium by CLSI protocol based microdilution method; format: functional
[16] = tested on: Burkholderia pseudomallei; assay: Antibacterial activity against Burkholderia pseudomallei BPS2020IRBA003 under muller hinton medium by CLSI protocol based microdilution method; format: functional
[17] = tested on: Burkholderia thailandensis; assay: Antibacterial activity against Burkholderia thailandensis E264 under muller hinton medium by CLSI protocol based microdilution method; format: functional
[18] = Stability in aqueous solution assessed as half life; format: physicochemical
Pseudomonas aeruginosa [19] = assay: Antibacterial activity against Pseudomonas aeruginosa PAO1 under 1 uM FeCl3 medium by CLSI protocol based microdilution method; format: functional
[20] = tested on: Burkholderia thailandensis; assay: Antibacterial activity against Burkholderia thailandensis E264TS32C12 under muller hinton medium by CLSI protocol based microdilution method; format: functional
[21] = tested on: Burkholderia pseudomallei; assay: Antibacterial activity against Burkholderia pseudomallei K96243 under muller hinton medium by CLSI protocol based microdilution method; format: functional
[22] = tested on: Burkholderia thailandensis; assay: Antibacterial activity against Burkholderia thailandensis E264 under succinate minimum medium by CLSI protocol based microdilution method; format: functional
Pseudomonas aeruginosa [23] = assay: Antibacterial activity against Pseudomonas aeruginosa AM85 under succinate minimum medium by CLSI protocol based microdilution method; format: functional
[24] = tested on: Burkholderia thailandensis; assay: Antibacterial activity against Burkholderia thailandensis E264TS32C47 under muller hinton medium by CLSI protocol based microdilution method; format: functional
Pseudomonas aeruginosa [25] = assay: Antibacterial activity against Pseudomonas aeruginosa PAO1 under muller hinton medium by CLSI protocol based microdilution method; format: functional
Pseudomonas aeruginosa [26] = assay: Antibacterial activity against Pseudomonas aeruginosa AM85 under muller hinton medium by CLSI protocol based microdilution method; format: functional
[27] = tested on: Burkholderia thailandensis; assay: Antibacterial activity against Burkholderia thailandensis E264TS32C47 under 1 uM FeCl3 medium by CLSI protocol based microdilution method; format: functional
[28] = tested on: Burkholderia pseudomallei; assay: Antibacterial activity against Burkholderia pseudomallei BPS2020IRBA005 under muller hinton medium by CLSI protocol based microdilution method; format: functional
[29] = tested on: Burkholderia thailandensis; assay: Antibacterial activity against Burkholderia thailandensis E264TS32C10 under muller hinton medium by CLSI protocol based microdilution method; format: functional
[30] = tested on: Burkholderia pseudomallei; assay: Antibacterial activity against Burkholderia pseudomallei BPS2020IRBA002 under muller hinton medium by CLSI protocol based microdilution method; format: functional
Pseudomonas aeruginosa [31] = assay: Antibacterial activity against Pseudomonas aeruginosa AM85 under 1 uM FeCl3 medium by CLSI protocol based microdilution method; format: functional
[32] = tested on: Burkholderia pseudomallei; assay: Antibacterial activity against Burkholderia pseudomallei K96243 under 1 uM FeCl3 medium by CLSI protocol based microdilution method; format: functional
Pseudomonas aeruginosa [33] = assay: Antibacterial activity against Pseudomonas aeruginosa PAO1 under succinate minimum medium by CLSI protocol based microdilution method; format: functional
[34] = tested on: Burkholderia pseudomallei; assay: Antibacterial activity against Burkholderia pseudomallei BPS2020IRBA001 under 1 uM FeCl3 medium by CLSI protocol based microdilution method; format: functional
[35] = tested on: Burkholderia pseudomallei; assay: Antibacterial activity against Burkholderia pseudomallei BPS2020IRBA001 under muller hinton medium by CLSI protocol based microdilution method; format: functional
Pseudomonas aeruginosa [36] = assay: Antibacterial activity against Pseudomonas aeruginosa PAD07 under muller hinton medium by CLSI protocol based microdilution method; format: functional
[37] = tested on: Burkholderia thailandensis; assay: Antibacterial activity against Burkholderia thailandensis E264TS32C47 under succinate minimum medium by CLSI protocol based microdilution method; format: functional
[38] = tested on: Burkholderia thailandensis; assay: Antibacterial activity against Burkholderia thailandensis E264TS32C10 under 1 uM FeCl3 medium by CLSI protocol based microdilution method; format: functional

## CC(OC(=O)c1cc(=O)c(O)c[nH]1)OC(=O)N1CCN(c2cc3c(cc2F)c(=O)c(C(=O)O)cn3C2CC2)CC1 (stereo not given)
[1]
  MIC: 8 mg/L (≈ 14.4 µM)
[2]
  MIC: 1 mg/L (≈ 1.8 µM)
[3]
  MIC: 8 mg/L (≈ 14.4 µM)
[4]
  MIC: 32 mg/L (≈ 57.5 µM)
Lipid bilayer
  Activity: 29.5 mN/meter
[5]
  MIC: 4 mg/L (≈ 7.19 µM)
[6]
  MIC: 2 mg/L (≈ 3.59 µM)
[7]
  MIC: 2 mg/L (≈ 3.59 µM)
[8]
  MIC: 16 mg/L (≈ 28.8 µM)
Pseudomonas aeruginosa [9]
  MIC: 0.25 mg/L (≈ 0.449 µM)
[10]
  MIC: 32 mg/L (≈ 57.5 µM)
Pseudomonas aeruginosa [11]
  MIC: 0.25 mg/L (≈ 0.449 µM)
[12]
  MIC: 16 mg/L (≈ 28.8 µM)
[13]
  MIC: 16 mg/L (≈ 28.8 µM)
[14]
  MIC: 4 mg/L (≈ 7.19 µM)
HepG2
  Activity: Non-Toxic
[15]
  MIC: 1 mg/L (≈ 1.8 µM)
[16]
  MIC: 2 mg/L (≈ 3.59 µM)
[17]
  MIC: 4 mg/L (≈ 7.19 µM)
[18]
  half-life: 168 h
Pseudomonas aeruginosa [19]
  MIC: 2 mg/L (≈ 3.59 µM)
[20]
  MIC: 16 mg/L (≈ 28.8 µM)
[21]
  MIC: 1 mg/L (≈ 1.8 µM)
[22]
  MIC: 4 mg/L (≈ 7.19 µM)
Pseudomonas aeruginosa [23]
  MIC: 64 mg/L (≈ 115 µM)
[24]
  MIC: 8 mg/L (≈ 14.4 µM)
Pseudomonas aeruginosa [25]
  MIC: 1 mg/L (≈ 1.8 µM)
Pseudomonas aeruginosa [26]
  MIC: 32 mg/L (≈ 57.5 µM)
[27]
  MIC: 4 mg/L (≈ 7.19 µM)
[28]
  MIC: 16 mg/L (≈ 28.8 µM)
[29]
  MIC: 128 mg/L (≈ 230 µM)
[30]
  MIC: 16 mg/L (≈ 28.8 µM)
Pseudomonas aeruginosa [31]
  MIC: 64 mg/L (≈ 115 µM)
[32]
  MIC: 1 mg/L (≈ 1.8 µM)
Pseudomonas aeruginosa [33]
  MIC: 2 mg/L (≈ 3.59 µM)
[34]
  MIC: 32 mg/L (≈ 57.5 µM)
[35]
  MIC: 32 mg/L (≈ 57.5 µM)
Pseudomonas aeruginosa [36]
  MIC: 0.25 mg/L (≈ 0.449 µM)
[37]
  MIC: 8 mg/L (≈ 14.4 µM)
[38]
  MIC: 32 mg/L (≈ 57.5 µM)
